The record followed here is patent publication US20260092074A1, “Annelated Pyridines as Steroidogenesis Inhibitors, Preparation Method and Use Thereof” (Guangzhou Vinnocent Pharmaceutical Limited, priority 2022, published 2026).

pIC50: −log10 of the molar value.

For one assay, the target named is T1, human CYP11B1 (Homo sapiens, UniProt P15538).
T1 construct: expressed in transfected cells
T1 sequence (P15538 25-503): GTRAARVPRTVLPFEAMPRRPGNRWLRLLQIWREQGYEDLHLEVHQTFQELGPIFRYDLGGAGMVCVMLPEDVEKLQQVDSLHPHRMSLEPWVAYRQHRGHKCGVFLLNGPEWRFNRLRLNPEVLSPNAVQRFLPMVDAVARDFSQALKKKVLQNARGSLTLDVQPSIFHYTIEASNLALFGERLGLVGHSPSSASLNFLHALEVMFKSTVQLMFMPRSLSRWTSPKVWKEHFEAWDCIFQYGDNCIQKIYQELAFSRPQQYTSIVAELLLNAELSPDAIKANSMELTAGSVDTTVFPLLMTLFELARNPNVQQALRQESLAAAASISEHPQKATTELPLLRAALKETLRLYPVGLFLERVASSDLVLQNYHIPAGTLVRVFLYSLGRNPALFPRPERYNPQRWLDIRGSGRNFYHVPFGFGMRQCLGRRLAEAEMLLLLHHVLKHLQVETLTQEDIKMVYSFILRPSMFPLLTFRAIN
Put plainly: Inhibition of hCYP11B1 in transfected V79 cells. In kind it is cell-based. The note with it: hamster V79 cells expressing human CYP11B1; substrate 11-deoxycortisol 200 nM. The protocol:
(§1) Genes of human CYP11B1 and rat NADPH-P450 reductase were transfected into hamster V79 cells using a lentivirus vector, and stably-expressing cell lines were selected by taking advantages of the associated puromycin-resistance gene. Cultured cells were diluted and seeded in a 96-well plate with an amount of approximately 10,000 per well. After pre-incubation with suitable concentrations of the test compounds for 2 hours, 11-deoxycortisol of 200 nM was added as the substrate to initiate the catalytic reaction. After further incubation for 30 minutes, it was quenched with ethyl acetate. Subsequently, the substrate and product(s) were quantified using LC-MS/MS or HPLC at 260 nm, and the IC50 values were calculated according to inhibitory percentage.

For a further assay, the target named is T2, human CYP11B2 (Homo sapiens, UniProt P19099).
T2 construct: expressed in transfected cells
T2 sequence (P19099 25-503): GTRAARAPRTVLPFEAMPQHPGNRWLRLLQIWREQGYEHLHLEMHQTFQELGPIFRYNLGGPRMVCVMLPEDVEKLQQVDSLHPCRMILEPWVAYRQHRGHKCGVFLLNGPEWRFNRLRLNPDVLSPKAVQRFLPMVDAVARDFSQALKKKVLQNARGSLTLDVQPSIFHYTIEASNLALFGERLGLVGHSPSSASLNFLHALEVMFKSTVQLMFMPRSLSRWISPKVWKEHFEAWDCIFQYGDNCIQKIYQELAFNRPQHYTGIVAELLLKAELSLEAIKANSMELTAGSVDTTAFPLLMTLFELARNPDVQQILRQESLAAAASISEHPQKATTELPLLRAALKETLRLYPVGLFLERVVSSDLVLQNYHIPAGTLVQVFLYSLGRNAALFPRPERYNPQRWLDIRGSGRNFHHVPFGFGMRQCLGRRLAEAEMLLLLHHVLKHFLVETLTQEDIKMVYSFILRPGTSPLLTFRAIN
Nature of the assay: Inhibition of hCYP11B2 in transfected V79 cells. In kind it is cell-based. The note with it: hamster V79 cells expressing human CYP11B2; substrate 11-deoxycorticosterone 200 nM. The protocol: as §1, with “CYP11B2” for “CYP11B1”, “11-deoxycorticosterone” for “11-deoxycortisol”

What is called pIC50 is the IC50 on a negative log10 scale, so that one unit is a factor of ten. Turning to `N#Cc1cccc(-c2cncc3c2CCN3C(=O)c2ccccc2F)c1` [C55, 3-(1-(2-Fluorobenzoyl)-2,3-dihydro-1H-pyrrolo[2,3-c]pyridin-4-yl)benzonitrile], the pIC50 at human CYP11B1 is 6.01; against human CYP11B2, 7.54.

Regarding `O=C(c1ccccc1F)N1CCc2c(-c3ccoc3)cncc21` [C56, (2-Fluorophenyl)(4-(furan-3-yl)-2,3-dihydro-1H-pyrrolo[2,3-c]pyridin-1-yl)methanone], the pIC50 against human CYP11B1 is 6.28; against human CYP11B2, 6.99.

For the molecule `O=C(c1ccccc1F)N1CCc2c(-c3ccc4nccn4c3)cncc21` [C57, (2-Fluorophenyl)(4-(imidazo[1,2-a]pyridin-6-yl)-2,3-dihydro-1H-pyrrolo[2,3-c]pyridin-1-yl)methanone], the negative logarithm of the IC50 (pIC50) against human CYP11B1 is 6.06; against human CYP11B2, 7.57.

`O=C(c1ccccc1F)N1CCc2c(-c3ccc4ncsc4c3)cncc21` [C58, (4-(benzo[d]thiazol-6-yl)-2,3-dihydro-1H-pyrrolo[2,3-c]pyridin-1-yl)(2-fluorophenyl)methanone]: the pIC50 against human CYP11B1 was 5.58; at human CYP11B2, 7.12.

With `O=C(c1ccccc1F)N1CCc2c(-c3cc4ccccc4[nH]3)cncc21` [C59, (4-(1H-indol-2-yl)-2,3-dihydro-1H-pyrrolo[2,3-c]pyridin-1-yl)(2-fluorophenyl)methanone], the pIC50 at human CYP11B1 was 5.56; on human CYP11B2 it was 6.88.

On to `O=C(c1ccccc1F)N1CCc2c(-c3cc4ccccc4o3)cncc21` [C60, (4-(Benzofuran-2-yl)-2,3-dihydro-1H-pyrrolo[2,3-c]pyridin-1-yl)(2-fluorophenyl)methanone], for which the negative logarithm of the IC50 (pIC50) against human CYP11B1 is less than 5.00; against human CYP11B2, 6.82.

On to `O=C(c1ccccc1F)N1CCc2c(-c3cc4ccccc4s3)cncc21` [C61, (4-(Benzo[b]thiophen-2-yl)-2,3-dihydro-1H-pyrrolo[2,3-c]pyridin-1-yl)(2-fluorophenyl)methanone], for which the pIC50 at human CYP11B1 was 5.87; on human CYP11B2, 6.67.

As for `O=C(c1ccccc1F)N1CCc2c(-c3ccc4[nH]ccc4c3)cncc21` [C62, (4-(1H-indol-5-yl)-2,3-dihydro-1H-pyrrolo[2,3-c]pyridin-1-yl)(2-fluorophenyl)methanone], the pIC50 was 6.29 at human CYP11B1 and 7.52 at human CYP11B2.

Turning to `O=C(c1ccccc1F)N1CCc2c(-c3ccc4occc4c3)cncc21` [C63, (4-(Benzofuran-5-yl)-2,3-dihydro-1H-pyrrolo[2,3-c]pyridin-1-yl)(2-fluorophenyl)methanone], the negative-log IC50 (pIC50) was 5.74 against human CYP11B1 and 6.95 at human CYP11B2.

Consider `Cc1ccccc1CC(=O)N1CCc2c(-c3ccc(C#N)cc3)cncc21` [C64, 4-(1-(2-(o-Tolyl)acetyl)-2,3-dihydro-1H-pyrrolo[2,3-c]pyridin-4-yl)benzonitrile], for which the pIC50 against human CYP11B1 was 6.59; against human CYP11B2, 8.28.

As for `N#Cc1ccc(-c2cncc3c2CCN3C(=O)Cc2ccccc2Br)cc1` [C65, 4-(1-(2-(2-Bromophenyl)acetyl)-2,3-dihydro-1H-pyrrolo[2,3-c]pyridin-4-yl)benzonitrile], the figures for the pIC50 on human CYP11B1 and against human CYP11B2 were 6.53 and 8.12, respectively.

Consider `Cc1cccc(CC(=O)N2CCc3c(-c4ccc(C#N)cc4)cncc32)c1` [C66, 4-(1-(2-(m-Tolyl)acetyl)-2,3-dihydro-1H-pyrrolo[2,3-c]pyridin-4-yl)benzonitrile], for which the pIC50 is 7.04 against human CYP11B1 and 9.05 against human CYP11B2.

Take `N#Cc1ccc(-c2cncc3c2CCN3C(=O)Cc2ccccc2F)cc1` [C67, 4-(1-(2-(2-Fluorophenyl)acetyl)-2,3-dihydro-1H-pyrrolo[2,3-c]pyridin-4-yl)benzonitrile]: the pIC50 against human CYP11B1 is 6.56; on human CYP11B2, 8.19.

`COc1cccc(CC(=O)N2CCc3c(-c4ccc(C#N)cc4)cncc32)c1` [C68, 4-(1-(2-(3-Bethoxyphenyl)acetyl)-2,3-dihydro-1H-pyrrolo[2,3-c]pyridin-4-yl)benzonitrile]: the pIC50 at human CYP11B1 was 7.59; against human CYP11B2 it was 9.15.
